ChEMBL document CHEMBL5532698, “2,3-Dihydroquinazolin-4(1H)-ones and quinazolin-4(3H)-ones as broad-spectrum cytotoxic agents and their impact on tubulin polymerisation” (RSC Med Chem, 2024)

Assays:
HT-29 [1] = test: Antiproliferative activity against human HT-29 cells assessed as cell growth inhibition at 25 uM incubated for 72 hrs by MTT assay relative to control; type: functional
NCI-H460 [2] = test: Antiproliferative activity against human NCI-H460 cells assessed as cell growth inhibition at 25 uM incubated for 72 hrs by MTT assay relative to control; type: functional
A-431 [3] = test: Antiproliferative activity against human A-431 cells assessed as cell growth inhibition incubated for 72 hrs by MTT assay; type: functional
DU-145 [4] = test: Antiproliferative activity against human DU-145 cells assessed as cell growth inhibition incubated for 72 hrs by MTT assay; type: functional
A-431 [5] = test: Antiproliferative activity against human A-431 cells assessed as cell growth inhibition at 25 uM incubated for 72 hrs by MTT assay relative to control; type: functional
HT-29 [6] = test: Antiproliferative activity against human HT-29 cells assessed as cell growth inhibition incubated for 72 hrs by MTT assay; type: functional
MIA PaCa-2 [7] = test: Antiproliferative activity against human MIA PaCa-2 cells assessed as cell growth inhibition incubated for 72 hrs by MTT assay; type: functional
[8] = Antiproliferative activity against human SJG2 cells assessed as cell growth inhibition at 25 uM incubated for 72 hrs by MTT assay relative to control; type: functional; conditions: SJ-G2
U-87 MG [9] = test: Antiproliferative activity against human U87 cells assessed as cell growth inhibition incubated for 72 hrs by MTT assay; type: functional, U-87MG ATCC
MCF7 [10] = test: Antiproliferative activity against human MCF7 cells assessed as cell growth inhibition incubated for 72 hrs by MTT assay; type: functional
MCF7 [11] = test: Antiproliferative activity against human MCF7 cells assessed as cell growth inhibition at 25 uM incubated for 72 hrs by MTT assay relative to control; type: functional
A2780 [12] = test: Antiproliferative activity against human A2780 cells assessed as cell growth inhibition at 25 uM incubated for 72 hrs by MTT assay relative to control; type: functional
MIA PaCa-2 [13] = test: Antiproliferative activity against human MIA PaCa-2 cells assessed as cell growth inhibition at 25 uM incubated for 72 hrs by MTT assay relative to control; type: functional
[14] = Antiproliferative activity against human SJG2 cells assessed as cell growth inhibition incubated for 72 hrs by MTT assay; type: functional; conditions: SJ-G2
BE(2)-C [15] = test: Antiproliferative activity against human BE2C cells assessed as cell growth inhibition at 25 uM incubated for 72 hrs by MTT assay relative to control; type: functional
U-87 MG [16] = test: Antiproliferative activity against human U87 cells assessed as cell growth inhibition at 25 uM incubated for 72 hrs by MTT assay relative to control; type: functional, U-87MG ATCC
DU-145 [17] = test: Antiproliferative activity against human DU-145 cells assessed as cell growth inhibition at 25 uM incubated for 72 hrs by MTT assay relative to control; type: functional
BE(2)-C [18] = test: Antiproliferative activity against human BE2C cells assessed as cell growth inhibition incubated for 72 hrs by MTT assay; type: functional
A2780 [19] = test: Antiproliferative activity against human A2780 cells assessed as cell growth inhibition incubated for 72 hrs by MTT assay; type: functional
[20] = Cytotoxicity against human MCF-10A cells assessed as cell growth inhibition at 25 uM incubated for 72 hrs by MTT assay relative to control; type: toxicity, cell-based
[21] = Cytotoxicity against human MCF-10A cells assessed as cell growth inhibition incubated for 72 hrs by MTT assay; type: toxicity, cell-based
NCI-H460 [22] = test: Antiproliferative activity against human NCI-H460 cells assessed as cell growth inhibition incubated for 72 hrs by MTT assay; type: functional

SMILES	inhibition at 25 µM (HT-29 [1]) [%]	inhibition at 25 µM (NCI-H460 [2]) [%]	GI50 (A-431 [3]) [µM]	GI50 (DU-145 [4]) [µM]	inhibition at 25 µM (A-431 [5]) [%]	GI50 (HT-29 [6]) [µM]	GI50 (MIA PaCa-2 [7]) [µM]	inhibition at 25 µM [8] [%]	GI50 (U-87 MG [9]) [µM]	GI50 (MCF7 [10]) [µM]	inhibition at 25 µM (MCF7 [11]) [%]	inhibition at 25 µM (A2780 [12]) [%]	inhibition at 25 µM (MIA PaCa-2 [13]) [%]	GI50 [14] [µM]	inhibition at 25 µM (BE(2)-C [15]) [%]	inhibition at 25 µM (U-87 MG [16]) [%]	inhibition at 25 µM (DU-145 [17]) [%]	GI50 (BE(2)-C [18]) [µM]	GI50 (A2780 [19]) [µM]	inhibition at 72 h, 25 µM [20] [%]	also measured
O=C1NC(c2ccc([N+](=O)[O-])cc2)Nc2ccccc21 (configuration not stated)	70	61	17	26	57	8.7	7.5	56	> 50	3.8	> 100	65	52	10	53	22	50	10	11	58	GI50 at 72 h [21]: 11 µM; GI50 (NCI-H460 [22]): 14 µM
O=C1NC(C2CC=CCC2)Nc2ccccc21 (configuration not stated)	> 100	91	3.8	19	> 100	5.4	12	87	17	15	72	99	82	17	97	67	67	5.7	3.9	89	GI50 at 72 h [21]: 11 µM; GI50 (NCI-H460 [22]): 11 µM
COC(=O)c1cccc(/C=C/c2nc3ccccc3c(=O)[nH]2)c1	40	34	6.2	16	8	3.8	5.6	43	32	2.2	77	16	39	5.5	47	11	32	8.5	4.8	48	GI50 at 72 h [21]: 8.5 µM; GI50 (NCI-H460 [22]): 7.2 µM
O=C1NC(/C(Br)=C/c2ccccc2)Nc2ccccc21 (configuration not stated)	> 100	97	8.2	3.1	> 100	2.6	12	> 100	5.7	8.5	> 100	94	81	12	87	95	> 100	10	5	99	GI50 at 72 h [21]: 2.9 µM; GI50 (NCI-H460 [22]): 4.7 µM
COc1cccc(C2NC(=O)c3ccccc3N2)c1 (configuration not stated)	> 100	100	2.1	2.3	> 100	1.7	4.1	> 100	2.7	5.8	85	100	94	3.3	> 100	99	> 100	2.3	2.6	> 100	GI50 at 72 h [21]: 3.2 µM; GI50 (NCI-H460 [22]): 3.3 µM
CCCCCCCCC1NC(=O)c2ccccc2N1 (configuration not stated)	93	61	7.1	> 50	91	13	12	77	> 50	2.9	> 100	96	75	13	85	39	53	9.2	4.2	80	GI50 at 72 h [21]: 11 µM; GI50 (NCI-H460 [22]): 14 µM
